Values of other authors in patent US10137135B2, “Formulations and methods for providing progestin-only contraception while minimizing adverse side effects associated therewith” (Allergan Sales, LLC, priority 2005, dated 2018).

Test system: ovulation
Conditions: subdermal implants of NEA

Structure (SMILES): C#C[C@]1(OC(C)=O)CC[C@H]2[C@@H]3CCC4=CC(=O)CC[C@@H]4[C@H]3CC[C@@]21C [NEA, norethindrone acetate]
- NE levels thought to be required to consistently inhibit ovulation: 600 pg/mL
